Experiments:
[1] = tested on: Adjuvant-Induced Arthritis in Rats; assay: Established Adjuvant-Induced Arthritis in Rats (paw volume); assay type: in vivo, Charles River Lewis male rats; settings: 24 h; rat; oral; dosed that day and 6 following days; ED50% decrease from control paw volume (uninjected left hind paw), one day after last dose
Procedure: A standard procedure for detecting and comparing the anti-inflammatory activity of compounds in this series for which there is good correlation with human efficacy is the adjuvant-induced arthritis test in rats.
Established Adjuvant-Induced Arthritis in Rats
Charles River Lewis male rats (130-150 grams) are injected subcutaneously in the plantar area of the right hind paw with 0.1 ml of adjuvant (Difco heat-killed, lyophilized Myobacterium butyricum suspended in mineral oil 5 mg./ml.). 20 Non-arthritic controls are injected with mineral oil. The animals are held for 2 weeks to allow development of arthritis. Paw volumes (uninjected, left hand paw) are measured and the adjuvant injected rats are culled and distributed to treatment groups of 10 of equal disease severity. Non-arthritic controls are distributed to 2 groups of 10. The rats are given oral doses of compound or PVA-Acacia (10 ml./kg.) on that day and on the 6 following days. One day after the last dose the paw volumes (uninjected, left hind paw) are measured using a Ugo Basile Volume Differential Meter Model 7101. [formula]
Dose-response regression lines of the % decrease are plotted on semi-log paper by visual fit and the ED50% decrease from control paw volume is determined by inspection.

[2] = tested on: phenylquinone writhing in mice; assay: phenylquinone writhing test in mice (analgesic); assay type: in vivo, Carworth CF-lS male mice; settings: po; mouse; intubated in 0.5% methylcellulose; phenylquinone 1.25 mg/kg i.p. 30 min later; observed 30-40 min after antagonist
Procedure: An equally reliable test that is used for testing analgesic activity of compounds is the phenylquinone writhing test in mice.
Writhing was caused in mice by the intraperitoneal injection of phenyl-p-benzoquinone (Siegmund, E., Cadmus, R., Lu, G., Proc. Soc. Exp. Biol, and Med., 95, 729, 1957).
Groups of 10 or more Carworth CF-lS male mice, 18-21 g each, were fasted 17-21 hours and were intubated with the writhing antagonist at several dose levels in 0.5% methylcellulose. 30 Minutes later the mice were challenged with phenylquinone (1.25 mg./kg., i.p., dissolved in ethanol and diluted to 5% ethanol with distilled water at 40° C.). […] ED50' s were obtained by the Litchfield and Wilcoxon Method (Litchfield, J. T. and Wilcoxon, F., J.P.E.T., 96, 99 1949) and the Weil moving average method (Weil, C., Biometrics, 8 ,249 1952). Peak time studies were also done with some of these compounds and their peak time ED50' s were recorded.

| SMILES | ED50 [1] | ED50 [2] |
| --- | --- | --- |
| COc1ccc(-c2nc3n(c2-c2ccc(OC)cc2)C(F)C(F)(F)S3)cc1 (stereo not shown) [0 F F H F, 2,3-Dihydro-2,2,3-trifluoro-5,6-bis(p-methoxyphenyl)imidazo-[2,1-b]thiazole] | 11 mg/kg | – |
| COc1ccc(-c2nc3n(c2-c2ccc(OC)cc2)CCS3(=O)=O)cc1 [2 H H H H, 2,3-Dihydro-5,6-bis(p-methoxyphenyl)imidazo[2,1-b]thiazole S,S-dioxide] | 8 mg/kg | > 130 mg/kg |
| COc1ccc(-c2nc3n(c2-c2ccc(OC)cc2)CCS3)cc1 [0 H H H H, 2,3-Dihydro-5,6-bis(p-methoxyphenyl)imidazo[2,1-b]thiazole] | 5.5 mg/kg | 64 mg/kg |
| COc1ccc(-c2nc3n(c2-c2ccc(OC)cc2)CC[S+]3[O-])cc1 (stereo not shown) [1 H H H H, 2,3-Dihydro-5,6-bis(p-methoxyphenyl)imidazo[2,1-b]thiazole S-oxide] | 7.4 mg/kg | 8.7 mg/kg |

From US4064260A, “Anti-inflammatory diarylimidazothiazoles and their corresponding S-oxides” (E. I. Du Pont de Nemours and Company, priority 1976, dated 1977)
